Converted amounts (≈) assume the structure as drawn. Where two headings read alike, the source gives them in different places.

One test has as its system E. coli ATCC25922. The test can be described thus: Antibacterial activity assay (broth dilution MIC). As to conditions: Escherichia coli, 37° C., 24 h, compounds 38, 44-45, 58-61, 63-64 with 0.05% Tween 80. It counts as cell-based. The method, then: (§1) Antibacterial activity assay. The antibacterial activities of all the compounds were determined according to a broth dilution method specified in Clinical and Laboratory Standards Institute (CLSI) guidelines. Bacterial cells were inoculated on a Mueller-Hinton agar (MHA) plate for overnight culture, and the concentration of the bacterial cells was adjusted to about 1×10^6 colony-forming units (CFU)/mL with phosphate buffered saline (PBS). First, a 1000 μg/mL stock solution (a final concentration of dimethyl sulfoxide (DMSO) was ≤2%) was prepared by dissolving a sample in DMSO/H2O. Then, the stock solution was diluted with Mueller-Hinton Broth (MHB) to an initial concentration of 100 μg/mL, and the sample solution (100 μL) was subjected to two-fold gradient dilution with MHB in a 96-well plate, to obtain 100 μg/mL to 0.78 μg/mL serial dilutions. Then, a bacterial suspension (100 μL) was added to each well of the 96-well plate and mixed with the test sample solution (100 μL). Among them, test systems for compounds 38, 44-45, 58-61 and 63-64 contained 0.05% of Tween 80. Finally, the 96-well plate was incubated at 37° C. for 24 hours. Absorbances at 600 nm at 0 and 24 h were measured. An minimum inhibitory concentration (MIC) value was defined as the lowest concentration where no visible bacterial growth occurred. All experiments were carried out in at least two duplicates, and biological repeatability could be achieved.
A general note: In broth dilution the organism is exposed to a series of concentrations in liquid medium.

The subject of another test is S. aureus ATCC29213. The test can be described thus: Antibacterial activity assay (broth dilution MIC). The format is cell-based. The settings on record: Staphylococcus aureus, 37° C., 24 h, compounds 38, 44-45, 58-61, 63-64 with 0.05% Tween 80. The method, then:
as §1

The next test concerns MRSA NCTC10442. The test can be described thus: Antibacterial activity assay (broth dilution MIC). The format is cell-based, methicillin-resistant Staphylococcus aureus. The settings on record: Staphylococcus aureus, 37° C., 24 h, compounds 38, 44-45, 58-61, 63-64 with 0.05% Tween 80. The protocol: as §1
Another test relates to MRSA N315. The test can be described thus: Antibacterial activity assay (broth dilution MIC). As to conditions: Staphylococcus aureus, 37° C., 24 h, compounds 38, 44-45, 58-61, 63-64 with 0.05% Tween 80. It counts as cell-based, methicillin-resistant Staphylococcus aureus. The method, then:
as §1

Another test deals with Gram-positive bacteria. The test can be described thus: Antibacterial activity against Gram-positive bacteria (MIC summary). The settings on record: 24 h, read-out: minimum inhibitory concentration (MIC) against Gram-positive bacteria. It counts as cell-based. The protocol: as §1
A further test deals with Gram-negative bacteria. The test can be described thus: Antibacterial activity against Gram-negative bacteria (MIC summary). It counts as cell-based. The settings on record: 24 h; summary of tables 1 and 2. The protocol:
as §1

As for `C=C[C@@](C)(/C=C/c1ccc(OCCCCN(Cc2ccccn2)Cc2ccccn2)cc1)CCC=C(C)C` [Compound 22], the MIC with E. coli ATCC25922 was greater than 100 µg/mL; against S. aureus ATCC29213, 3.12 µg/mL (≈ 6.13 µM); in the test on MRSA NCTC10442, 1.56 µg/mL (≈ 3.06 µM); against MRSA N315 it was 1.56 µg/mL (≈ 3.06 µM).
`C=C[C@@](C)(/C=C/c1ccc(OCCCCN2CCN(CCCN(C)C)CC2)cc1)CCC=C(C)C` [Compound 23]: the MIC against E. coli ATCC25922 was 3.12 µg/mL (≈ 6.49 µM); against S. aureus ATCC29213 it was 1.56 µg/mL (≈ 3.24 µM); with Gram-positive bacteria (summary of tables 1 and 2) it was 0.39 to 3.12 µg/mL (≈ 0.81 to 6.49 µM); against MRSA NCTC10442, 3.12 µg/mL (≈ 6.49 µM); against MRSA N315, 0.78 µg/mL (≈ 1.62 µM); in the test with Gram-negative bacteria, 1.56 to 3.12 µg/mL (≈ 3.24 to 6.49 µM).
For the molecule `C=C[C@@](C)(/C=C/c1ccc(OCCCCNCCSC)cc1)CCC=C(C)C` [Compound 25], the MIC was 50 µg/mL (≈ 124 µM) in the test on E. coli ATCC25922; 0.78 µg/mL (≈ 1.94 µM) in the test with S. aureus ATCC29213; 0.39 to 3.12 µg/mL (≈ 0.971 to 7.78 µM) in the test on Gram-positive bacteria (summary of tables 1 and 2); 1.56 µg/mL (≈ 3.88 µM) against MRSA NCTC10442; 0.78 µg/mL (≈ 1.94 µM) in the test with MRSA N315.
`C=C[C@@](C)(/C=C/c1ccc(OCCCCN2CCNCCNCCNCCNCC2)cc1)CCC=C(C)C` [Compound 31]: the MIC in the test on E. coli ATCC25922 was 6.25 µg/mL (≈ 11.9 µM); against S. aureus ATCC29213, 1.56 µg/mL (≈ 2.97 µM); in the test on Gram-positive bacteria (summary of tables 1 and 2), 0.39 to 3.12 µg/mL (≈ 0.742 to 5.94 µM); against MRSA NCTC10442, 1.56 µg/mL (≈ 2.97 µM); against MRSA N315, 0.78 µg/mL (≈ 1.48 µM).
Regarding `C=C[C@@](C)(/C=C/c1ccc(OCCCCNC(=N)N)cc1)CCC=C(C)C` [Compound 35], the MIC in the test on E. coli ATCC25922 was 25 µg/mL (≈ 67.6 µM); against S. aureus ATCC29213 it was 3.12 µg/mL (≈ 8.46 µM); in the test on Gram-positive bacteria (summary of tables 1 and 2), 0.39 to 3.12 µg/mL (≈ 1.06 to 8.46 µM); with MRSA NCTC10442 it was 3.12 µg/mL (≈ 8.46 µM); against MRSA N315, 1.56 µg/mL (≈ 4.22 µM).
Regarding `C=C[C@](C)(/C=C/c1ccc(OCC(=O)N[C@@H](CCCNC(=N)N)C(=O)OC)cc1)CCC=C(C)C` [Compound 38], the MIC was 6.25 µg/mL (≈ 12.9 µM) in the test with E. coli ATCC25922; 0.78 µg/mL (≈ 1.61 µM) in the test on S. aureus ATCC29213; 0.39 to 3.12 µg/mL (≈ 0.805 to 6.45 µM) in the test on Gram-positive bacteria; 0.78 µg/mL (≈ 1.61 µM) in the test with MRSA NCTC10442; 1.56 µg/mL (≈ 3.22 µM) with MRSA N315.
Consider `C=C[C@](C)(/C=C/c1ccc(OCC(=O)N[C@H](CCCNC(=N)N)C(N)=O)cc1)CCC=C(C)C` [Compound 39], for which the MIC was 12.5 µg/mL (≈ 26.6 µM) in the test on E. coli ATCC25922; 3.12 µg/mL (≈ 6.65 µM) in the test with S. aureus ATCC29213; 0.39 to 3.12 µg/mL (≈ 0.83 to 6.65 µM) with Gram-positive bacteria; 3.12 µg/mL (≈ 6.65 µM) against MRSA NCTC10442; 3.12 µg/mL (≈ 6.65 µM) against MRSA N315.
Take `C=C[C@](C)(/C=C/c1ccc(OCC(=O)N[C@@H](Cc2c[nH]cn2)C(=O)OC)cc1)CCC=C(C)C` [Compound 40]: the MIC with E. coli ATCC25922 was greater than 100 µg/mL; in the test with S. aureus ATCC29213, 6.25 µg/mL (≈ 13.4 µM); against MRSA NCTC10442, 6.25 µg/mL (≈ 13.4 µM); with MRSA N315 it was 6.25 µg/mL (≈ 13.4 µM).
As to `C=C[C@](C)(/C=C/c1ccc(OCC(=O)N[C@@H](CCCNC(=N)N)C(=O)N[C@@H](CCCNC(=N)N)C(=O)N[C@@H](CCCNC(=N)N)C(=O)OC)cc1)CCC=C(C)C` [Compound 45], the MIC in the test with E. coli ATCC25922 is 6.25 µg/mL (≈ 7.84 µM); in the test on S. aureus ATCC29213, 0.39 µg/mL (≈ 0.489 µM); with Gram-positive bacteria, 0.39 to 3.12 µg/mL (≈ 0.489 to 3.92 µM); in the test on MRSA NCTC10442, 1.56 µg/mL (≈ 1.96 µM); in the test with MRSA N315 it was 0.78 µg/mL (≈ 0.979 µM).
As to `C=C[C@@](C)(/C=C/c1ccc(OCC(=O)N[C@@H](CCCCN)C(=O)OC)cc1)CCC=C(C)C` [Compound 47], the MIC amounted to 12.5 µg/mL (≈ 27.4 µM) in the test on E. coli ATCC25922, 6.25 µg/mL (≈ 13.7 µM) against S. aureus ATCC29213, 6.25 µg/mL (≈ 13.7 µM) with MRSA NCTC10442 and 6.25 µg/mL (≈ 13.7 µM) in the test on MRSA N315.
`C=C[C@](C)(/C=C/c1ccc(OCC(=O)N[C@@H](CCCNC(=N)N)C(=O)N[C@@H](CCCNC(=N)N)C(N)=O)cc1)CCC=C(C)C` [Compound 49]: the MIC against E. coli ATCC25922 is 12.5 µg/mL (≈ 20 µM); against S. aureus ATCC29213 it was 1.56 µg/mL (≈ 2.49 µM); with Gram-positive bacteria it was 0.39 to 3.12 µg/mL (≈ 0.623 to 4.99 µM); against MRSA NCTC10442, 1.56 µg/mL (≈ 2.49 µM); with MRSA N315, 3.12 µg/mL (≈ 4.99 µM).
Consider `C=C[C@@](C)(/C=C\c1ccc(OCC(=O)N[C@@H](CCCNC(=N)N)C(=O)N[C@@H](Cc2c[nH]cn2)C(=O)OC)cc1)CCC=C(C)C` [Compound 50], for which the MIC was determined as 12.5 µg/mL (≈ 20.1 µM) against E. coli ATCC25922, 6.25 µg/mL (≈ 10.1 µM) with S. aureus ATCC29213, 6.25 µg/mL (≈ 10.1 µM) with MRSA NCTC10442 and 6.25 µg/mL (≈ 10.1 µM) with MRSA N315.
`C=C[C@](C)(/C=C/c1ccc(OCC(=O)N[C@@H](CCCNC(=N)N)C(=O)NCCCN(CC)CC)cc1)CCC=C(C)C` [Compound 52]: the MIC in the test on E. coli ATCC25922 is 25 µg/mL (≈ 42.9 µM); in the test on S. aureus ATCC29213, 1.56 µg/mL (≈ 2.68 µM); with Gram-positive bacteria (summary of tables 1 and 2), 0.39 to 3.12 µg/mL (≈ 0.669 to 5.36 µM); with MRSA NCTC10442 it was 0.78 µg/mL (≈ 1.34 µM); against MRSA N315, 0.78 µg/mL (≈ 1.34 µM).
Regarding `C=C[C@](C)(/C=C/c1ccc(OCC(=O)N[C@H](CCCNC(=N)N)C(=O)N2CCN(c3ccc(N4CC(CNC(C)=O)OC4=O)cc3F)CC2)cc1)CCC=C(C)C` (some centres unmarked) [Compound 53], the MIC is 6.25 µg/mL (≈ 7.92 µM) with E. coli ATCC25922; 0.78 µg/mL (≈ 0.989 µM) against S. aureus ATCC29213; 0.39 to 3.12 µg/mL (≈ 0.494 to 3.96 µM) in the test with Gram-positive bacteria (summary of tables 1 and 2); 0.78 µg/mL (≈ 0.989 µM) in the test with MRSA NCTC10442; 0.78 µg/mL (≈ 0.989 µM) with MRSA N315.
Regarding `C=C[C@](C)(/C=C/c1ccc(OCC(=O)N[C@@H](Cc2c[nH]cn2)C(=O)N[C@@H](Cc2c[nH]cn2)C(=O)OC)cc1)CCC=C(C)C` [Compound 55], the MIC with E. coli ATCC25922 is greater than 100 µg/mL; in the test with S. aureus ATCC29213, 12.5 µg/mL (≈ 20.7 µM); against MRSA NCTC10442, 12.5 µg/mL (≈ 20.7 µM); against MRSA N315, 12.5 µg/mL (≈ 20.7 µM).

The record behind these values is patent publication US11912650B2, “Bakuchiol derivatives, pharmaceutically acceptable salts thereof, and preparation method and use of the same” (priority 2020, dated 2024).
